Structures can show the parent of a compound that is named as a salt.
What was measured:
MRP2 = target: T1, MRP2 (Homo sapiens, UniProt Q92887); experiment: Vesicular transport inhibition assay, MRP2; format: biochemical; details: membrane vesicles from HEK293 cells
T1 construct: host or cells: HEK293 (membrane vesicles)
Description: (§1) Experiment B4: Bile Acid Transporters Inhibition in the Liver. […] The compound was tested on a panel of 10 transporters: BSEP, MRP2, MRP3, MRP4 in a vesicular transport inhibition assay and NTCP, OAT1, OAT2v1, OATP1A2, OATP1B1, OATP1B3 in an uptake transporter inhibition assays. Vesicular transport inhibition assay was performed on membrane vesicles isolated from mammal HEK293 cells overexpressing human ABC transporters. Tested compound were incubated with vesicles and substrates for respective tested transporters. Incubation was performed in the presence of 4 mM ATP or AMP in order to differentiate between uptake by a transporter and passive diffusion into vesicles. In the case of MRP2 and MRP3, reactions were performed in the presence of 2 mM glutathione. Tested compounds were added to the reaction mixture dissolved in 0.75 μl of a solvent (1% of final incubation volume). Reaction mixtures were preincubated for 15 minutes at 37±1° C. Reactions were started by the addition of 25 μl of 12 mM MgATP (or 12 mM AMP) in test buffer, as a background control, separately preincubated.

MRP3 = target: T2, MRP3 (Homo sapiens, UniProt O15438); experiment: Vesicular transport inhibition assay, MRP3; format: biochemical; details: membrane vesicles from HEK293 cells
T2 construct: host or cells: HEK293 (membrane vesicles)
Description: as §1

BSEP = target: T3, BSEP (Homo sapiens, UniProt O95342); experiment: Vesicular transport inhibition assay, BSEP; format: biochemical; details: membrane vesicles from HEK293 cells
T3 construct: host or cells: HEK293 (membrane vesicles)
Description: as §1

OAT1 = target: T4, OAT1 (Homo sapiens, UniProt Q4U2R8); experiment: Uptake transporter inhibition assay, OAT1; format: cell-based; details: HEK293 cells overexpressing transporter
T4 construct: host or cells: HEK293
T4 sequence (Q4U2R8 1-563): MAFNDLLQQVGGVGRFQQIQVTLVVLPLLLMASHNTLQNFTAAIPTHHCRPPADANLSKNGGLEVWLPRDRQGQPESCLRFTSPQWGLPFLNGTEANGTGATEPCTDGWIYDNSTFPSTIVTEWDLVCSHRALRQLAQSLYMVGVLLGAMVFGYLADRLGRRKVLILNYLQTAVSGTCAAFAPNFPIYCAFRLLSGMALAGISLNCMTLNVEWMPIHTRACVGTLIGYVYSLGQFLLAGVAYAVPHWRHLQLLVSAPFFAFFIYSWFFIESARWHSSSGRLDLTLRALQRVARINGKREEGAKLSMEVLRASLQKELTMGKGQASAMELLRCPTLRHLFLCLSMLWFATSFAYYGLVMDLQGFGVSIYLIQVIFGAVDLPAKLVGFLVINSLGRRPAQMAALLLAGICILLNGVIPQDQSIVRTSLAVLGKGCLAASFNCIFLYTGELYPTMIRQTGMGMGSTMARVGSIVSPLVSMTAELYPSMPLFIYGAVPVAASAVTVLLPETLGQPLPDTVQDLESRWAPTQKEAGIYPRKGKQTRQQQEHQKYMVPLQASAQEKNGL
Description: (§2) Experiment B4: Bile Acid Transporters Inhibition in the Liver.
(§3) The compound was tested on a panel of 10 transporters: BSEP, MRP2, MRP3, MRP4 in a vesicular transport inhibition assay and NTCP, OAT1, OAT2v1, OATP1A2, OATP1B1, OATP1B3 in an uptake transporter inhibition assays.
(§4) Transporter uptake inhibition test was performed on mammal HEK293 cells overexpressing of a respective transporter. Cells were cultured at 37±1° C. and seeded on 96-well tissue culture plate at 1×10^5/well. Substrate was removed prior to experiment and cells were washed twice with 100 μl of respective buffer (HK pH 7.4 for OATP1B1 and HBSS pH 7.4 for NTCP, OAT1, OAT2v1, OATP1A2, and OATP1B3). Uptake studies were performed at 37±1° C. in 50 μl of respective buffer containing radioactively tagged substrate and tested compound or solvent.
(§5) After experiment cells were washed twice with 100 μl of ice-cold respective buffer and lysed with 50 μl of 0.1M NaOH. Transport of radioactively tagged substrate was determined by scintillation counter measurement.

OAT2v1 = target: T5, OAT2v1 (Homo sapiens, UniProt Q9Y694); experiment: Uptake transporter inhibition assay, OAT2v1; format: cell-based; details: HEK293 cells overexpressing transporter
T5 construct: host or cells: HEK293
T5 sequence (Q9Y694 1-546 isoform Q9Y694-2): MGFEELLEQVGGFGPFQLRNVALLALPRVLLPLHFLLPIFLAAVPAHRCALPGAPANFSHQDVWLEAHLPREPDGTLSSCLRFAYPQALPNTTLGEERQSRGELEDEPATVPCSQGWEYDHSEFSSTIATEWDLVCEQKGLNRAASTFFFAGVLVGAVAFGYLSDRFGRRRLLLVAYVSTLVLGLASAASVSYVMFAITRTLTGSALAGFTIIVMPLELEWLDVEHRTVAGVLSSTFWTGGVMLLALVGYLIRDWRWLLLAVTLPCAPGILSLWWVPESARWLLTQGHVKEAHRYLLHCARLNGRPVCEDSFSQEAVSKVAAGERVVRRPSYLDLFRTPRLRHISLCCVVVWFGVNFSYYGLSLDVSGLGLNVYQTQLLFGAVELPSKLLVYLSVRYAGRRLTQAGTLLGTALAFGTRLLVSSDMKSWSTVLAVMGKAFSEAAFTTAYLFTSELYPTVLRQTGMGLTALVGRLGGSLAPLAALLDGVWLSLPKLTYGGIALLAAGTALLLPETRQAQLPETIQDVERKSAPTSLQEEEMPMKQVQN
Description: as §2, §3, §4, §5

OATP1B1 = target: T6, OATP1B1 (Homo sapiens, UniProt Q9Y6L6); experiment: Uptake transporter inhibition assay, OATP1B1; format: cell-based; details: HEK293 cells overexpressing transporter
T6 construct: host or cells: HEK293
T6 sequence (Q9Y6L6 1-691): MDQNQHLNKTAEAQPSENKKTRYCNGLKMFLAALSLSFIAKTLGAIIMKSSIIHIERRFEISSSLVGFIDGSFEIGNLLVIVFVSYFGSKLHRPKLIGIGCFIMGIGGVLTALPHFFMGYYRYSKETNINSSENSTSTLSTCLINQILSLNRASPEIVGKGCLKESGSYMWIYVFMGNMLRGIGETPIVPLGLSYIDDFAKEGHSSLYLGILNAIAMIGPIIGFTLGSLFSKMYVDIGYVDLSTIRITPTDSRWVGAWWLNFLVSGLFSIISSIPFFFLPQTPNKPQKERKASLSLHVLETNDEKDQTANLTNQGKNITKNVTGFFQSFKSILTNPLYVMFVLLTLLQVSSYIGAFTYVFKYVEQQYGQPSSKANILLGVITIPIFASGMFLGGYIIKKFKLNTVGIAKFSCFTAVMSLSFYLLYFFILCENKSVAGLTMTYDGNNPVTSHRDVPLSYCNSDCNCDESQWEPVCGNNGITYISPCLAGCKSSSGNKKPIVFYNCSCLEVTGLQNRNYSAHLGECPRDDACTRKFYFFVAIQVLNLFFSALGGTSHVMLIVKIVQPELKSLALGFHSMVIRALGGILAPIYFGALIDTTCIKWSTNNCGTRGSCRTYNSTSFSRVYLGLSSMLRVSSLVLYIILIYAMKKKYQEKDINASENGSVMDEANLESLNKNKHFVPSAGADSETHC
Description: as §2, §3, §4, §5

T3 sequence (O95342 whole entry): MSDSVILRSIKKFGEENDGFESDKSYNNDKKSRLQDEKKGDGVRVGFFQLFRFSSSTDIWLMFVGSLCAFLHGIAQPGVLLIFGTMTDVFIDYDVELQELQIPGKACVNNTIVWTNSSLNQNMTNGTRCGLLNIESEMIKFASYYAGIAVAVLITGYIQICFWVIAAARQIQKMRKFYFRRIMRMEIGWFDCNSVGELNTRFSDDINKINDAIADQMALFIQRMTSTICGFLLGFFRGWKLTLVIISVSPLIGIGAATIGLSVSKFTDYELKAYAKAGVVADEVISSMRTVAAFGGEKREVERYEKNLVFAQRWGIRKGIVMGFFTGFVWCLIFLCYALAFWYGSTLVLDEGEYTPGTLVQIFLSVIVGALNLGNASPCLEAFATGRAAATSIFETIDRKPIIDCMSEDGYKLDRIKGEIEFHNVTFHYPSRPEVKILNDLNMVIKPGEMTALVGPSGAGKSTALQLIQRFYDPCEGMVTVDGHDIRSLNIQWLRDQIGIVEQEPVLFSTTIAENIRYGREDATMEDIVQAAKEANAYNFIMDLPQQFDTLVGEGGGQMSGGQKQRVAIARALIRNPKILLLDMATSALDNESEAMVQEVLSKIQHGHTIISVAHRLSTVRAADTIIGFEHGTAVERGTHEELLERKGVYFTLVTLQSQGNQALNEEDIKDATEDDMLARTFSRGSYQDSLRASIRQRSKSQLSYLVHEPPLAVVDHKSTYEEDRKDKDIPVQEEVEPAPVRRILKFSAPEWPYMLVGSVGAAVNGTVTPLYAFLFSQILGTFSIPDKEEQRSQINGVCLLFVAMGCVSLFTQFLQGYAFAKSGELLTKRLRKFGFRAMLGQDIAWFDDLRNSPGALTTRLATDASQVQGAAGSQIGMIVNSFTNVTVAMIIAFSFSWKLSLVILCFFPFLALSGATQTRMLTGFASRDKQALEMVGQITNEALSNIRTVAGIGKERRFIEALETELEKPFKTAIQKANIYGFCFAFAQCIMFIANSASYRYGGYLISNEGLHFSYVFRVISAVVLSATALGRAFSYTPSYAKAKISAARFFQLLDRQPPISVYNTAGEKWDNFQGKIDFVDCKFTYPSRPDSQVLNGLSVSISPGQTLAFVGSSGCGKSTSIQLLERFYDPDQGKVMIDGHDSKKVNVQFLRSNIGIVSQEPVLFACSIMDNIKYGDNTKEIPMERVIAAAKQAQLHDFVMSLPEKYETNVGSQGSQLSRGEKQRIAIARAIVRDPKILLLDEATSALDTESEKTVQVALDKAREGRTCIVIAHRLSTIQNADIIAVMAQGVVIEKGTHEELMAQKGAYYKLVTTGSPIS
T2 sequence (O15438 whole entry): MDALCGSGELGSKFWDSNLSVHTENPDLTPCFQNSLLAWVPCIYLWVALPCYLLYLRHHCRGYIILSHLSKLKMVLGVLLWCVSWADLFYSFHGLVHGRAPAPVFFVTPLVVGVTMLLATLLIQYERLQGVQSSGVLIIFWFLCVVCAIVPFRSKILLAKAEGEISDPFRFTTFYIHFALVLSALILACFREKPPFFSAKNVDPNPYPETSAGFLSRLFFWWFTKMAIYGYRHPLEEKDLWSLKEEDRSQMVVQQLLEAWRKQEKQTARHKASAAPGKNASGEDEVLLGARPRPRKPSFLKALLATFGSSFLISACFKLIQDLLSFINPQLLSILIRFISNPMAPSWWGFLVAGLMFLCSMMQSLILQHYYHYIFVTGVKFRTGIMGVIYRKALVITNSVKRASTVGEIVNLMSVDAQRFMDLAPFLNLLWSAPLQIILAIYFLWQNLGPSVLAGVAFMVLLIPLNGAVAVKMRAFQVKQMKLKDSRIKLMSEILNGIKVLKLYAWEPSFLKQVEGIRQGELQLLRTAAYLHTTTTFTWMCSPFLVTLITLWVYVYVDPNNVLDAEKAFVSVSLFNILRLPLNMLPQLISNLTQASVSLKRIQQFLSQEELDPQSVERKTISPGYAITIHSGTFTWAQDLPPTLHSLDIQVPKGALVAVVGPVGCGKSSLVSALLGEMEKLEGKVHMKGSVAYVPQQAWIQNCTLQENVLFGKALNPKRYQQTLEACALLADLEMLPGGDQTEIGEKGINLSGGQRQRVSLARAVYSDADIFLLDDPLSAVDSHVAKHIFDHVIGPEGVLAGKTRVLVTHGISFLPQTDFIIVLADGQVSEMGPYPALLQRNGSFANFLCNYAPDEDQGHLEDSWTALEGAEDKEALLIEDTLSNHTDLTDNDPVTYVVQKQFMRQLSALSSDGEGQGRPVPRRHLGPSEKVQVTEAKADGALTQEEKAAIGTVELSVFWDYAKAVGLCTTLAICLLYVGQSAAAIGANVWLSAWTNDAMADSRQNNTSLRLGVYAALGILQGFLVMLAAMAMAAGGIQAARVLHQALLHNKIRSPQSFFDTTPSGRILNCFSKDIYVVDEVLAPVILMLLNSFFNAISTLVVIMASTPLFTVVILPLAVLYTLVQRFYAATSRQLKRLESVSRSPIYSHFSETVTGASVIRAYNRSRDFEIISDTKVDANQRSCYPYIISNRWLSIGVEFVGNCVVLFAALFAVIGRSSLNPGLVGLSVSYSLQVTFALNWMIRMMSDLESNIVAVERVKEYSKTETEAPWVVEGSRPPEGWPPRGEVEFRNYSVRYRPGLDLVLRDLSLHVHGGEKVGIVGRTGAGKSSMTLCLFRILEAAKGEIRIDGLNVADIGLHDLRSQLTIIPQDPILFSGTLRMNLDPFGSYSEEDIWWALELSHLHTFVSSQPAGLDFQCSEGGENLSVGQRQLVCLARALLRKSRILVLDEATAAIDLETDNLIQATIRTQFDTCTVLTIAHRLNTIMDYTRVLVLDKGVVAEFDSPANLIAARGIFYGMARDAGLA
T1 sequence (Q92887 whole entry): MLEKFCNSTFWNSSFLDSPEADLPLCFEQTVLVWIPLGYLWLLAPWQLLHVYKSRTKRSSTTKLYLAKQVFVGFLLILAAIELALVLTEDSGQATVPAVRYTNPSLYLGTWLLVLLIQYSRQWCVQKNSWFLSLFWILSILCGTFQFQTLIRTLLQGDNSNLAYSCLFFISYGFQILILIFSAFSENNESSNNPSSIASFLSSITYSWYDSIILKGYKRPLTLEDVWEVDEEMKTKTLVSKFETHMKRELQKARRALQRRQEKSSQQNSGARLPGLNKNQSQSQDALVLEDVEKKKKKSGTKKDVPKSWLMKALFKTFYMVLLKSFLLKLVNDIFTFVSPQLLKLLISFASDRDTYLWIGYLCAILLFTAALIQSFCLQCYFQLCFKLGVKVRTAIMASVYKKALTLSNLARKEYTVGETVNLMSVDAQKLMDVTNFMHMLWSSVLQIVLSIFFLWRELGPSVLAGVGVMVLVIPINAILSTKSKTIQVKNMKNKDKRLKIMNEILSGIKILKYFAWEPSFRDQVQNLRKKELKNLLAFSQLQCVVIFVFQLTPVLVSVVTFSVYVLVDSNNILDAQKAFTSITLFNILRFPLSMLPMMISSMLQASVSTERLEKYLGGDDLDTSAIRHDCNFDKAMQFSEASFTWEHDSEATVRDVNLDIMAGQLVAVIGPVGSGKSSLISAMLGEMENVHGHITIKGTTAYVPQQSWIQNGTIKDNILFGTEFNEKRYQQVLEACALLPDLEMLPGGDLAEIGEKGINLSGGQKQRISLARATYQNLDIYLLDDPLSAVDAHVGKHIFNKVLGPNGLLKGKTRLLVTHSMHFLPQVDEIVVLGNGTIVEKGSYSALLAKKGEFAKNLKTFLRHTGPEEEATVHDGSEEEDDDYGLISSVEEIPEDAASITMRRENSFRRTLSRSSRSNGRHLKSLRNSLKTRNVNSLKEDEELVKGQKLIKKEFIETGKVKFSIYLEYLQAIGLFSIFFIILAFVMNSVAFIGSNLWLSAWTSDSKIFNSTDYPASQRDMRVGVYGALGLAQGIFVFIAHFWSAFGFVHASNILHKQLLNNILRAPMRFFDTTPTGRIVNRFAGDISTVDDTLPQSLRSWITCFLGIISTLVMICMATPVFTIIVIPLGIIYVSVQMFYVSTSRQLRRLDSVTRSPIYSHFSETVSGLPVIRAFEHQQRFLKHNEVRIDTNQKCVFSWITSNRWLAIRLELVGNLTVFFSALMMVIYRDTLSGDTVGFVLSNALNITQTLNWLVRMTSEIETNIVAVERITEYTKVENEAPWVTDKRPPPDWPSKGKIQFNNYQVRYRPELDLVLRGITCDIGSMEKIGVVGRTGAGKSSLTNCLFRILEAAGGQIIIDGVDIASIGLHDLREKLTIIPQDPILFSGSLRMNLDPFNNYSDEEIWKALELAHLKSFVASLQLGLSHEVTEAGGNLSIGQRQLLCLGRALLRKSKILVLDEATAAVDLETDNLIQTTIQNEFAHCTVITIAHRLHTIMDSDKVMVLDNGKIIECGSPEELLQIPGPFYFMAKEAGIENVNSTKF

Compound	IC50 (MRP2; symbol per footnote)	IC50 (MRP3; symbol per footnote)	IC50 (BSEP)	IC50 (OAT1)	IC50 (OAT2v1)	IC50 (OATP1B1)	IC50 (MRP2; 2 mM glutathione)	IC50 (MRP3; 2 mM glutathione)
CC#C[C@@H](CC(=O)O)c1ccc(OCC(C)=C(C)C)cc1 [Example S1, (3S)-3-{4-[(2,3-dimethylbut-2-en-1-yl)oxy]phenyl}hex-4-ynoic acid calcium salt]	> 100 µM	> 100 µM	> 100 µM	245 µM	> 300 µM	17.9 µM		
Cc1cc(OCCCS(C)(=O)=O)cc(C)c1-c1cccc(COc2ccc3c(c2)OC[C@H]3CC(=O)O)c1 [Example R1, 2[(3S)-6-({3-[4-(3-methanesulfonylpropoxy)-2,6-dimethylphenyl]-phenyl}methoxy)-2,3-dihydro-1-benzofuran-3-yl]acetic acid, reference compound]			30 µM	34.8 µM	62.8 µM	0.49 µM	48.1 µM	31.8 µM

From patent publication US11964938B2, “3-phenyl-4-hexynoic acid derivatives as GPR40 agonists” (CELON PHARMA S.A., priority 2018, dated 2024)
